For series [1] the following is noted: organic solvents; water at acidic pH; cited from earlier work.
For the next series, the system named is SARS-CoV-2. The series is classed as in vivo. Conditions: individuals infected with SARS-CoV-2 treated with Rifampin.

For `CO[C@H]1/C=C/O[C@@]2(C)Oc3c(C)c(O)c4c(O)c(c(/C=N/N5CCN(C)CC5)c(O)c4c3C2=O)NC(=O)/C(C)=C\C=C\[C@H](C)[C@H](O)[C@@H](C)[C@@H](O)[C@@H](C)[C@H](OC(C)=O)[C@@H]1C` [Rifampin], in series [1], the solubility entry is “soluble in organic solvents and in water at acidic pH”. In the series with SARS-CoV-2, the recovery times entry is “much faster recovery times” and the severity of symptoms result is reported as “less severe symptoms”.

The values above are taken from patent US20220117957A1, “TREATMENT METHOD FOR CORONAVIRUS INFECTION” (priority 2020, published 2022).
